Measured values taken from PMC11684530 (ACS Omega, 2024).

What follows are compounds tested against T1, COX-2 (cyclooxygenase-2) (Homo sapiens, UniProt P35354) (assay: fluorometric COX-2 inhibitor screening kit).
T1 sequence (P35354 18-604): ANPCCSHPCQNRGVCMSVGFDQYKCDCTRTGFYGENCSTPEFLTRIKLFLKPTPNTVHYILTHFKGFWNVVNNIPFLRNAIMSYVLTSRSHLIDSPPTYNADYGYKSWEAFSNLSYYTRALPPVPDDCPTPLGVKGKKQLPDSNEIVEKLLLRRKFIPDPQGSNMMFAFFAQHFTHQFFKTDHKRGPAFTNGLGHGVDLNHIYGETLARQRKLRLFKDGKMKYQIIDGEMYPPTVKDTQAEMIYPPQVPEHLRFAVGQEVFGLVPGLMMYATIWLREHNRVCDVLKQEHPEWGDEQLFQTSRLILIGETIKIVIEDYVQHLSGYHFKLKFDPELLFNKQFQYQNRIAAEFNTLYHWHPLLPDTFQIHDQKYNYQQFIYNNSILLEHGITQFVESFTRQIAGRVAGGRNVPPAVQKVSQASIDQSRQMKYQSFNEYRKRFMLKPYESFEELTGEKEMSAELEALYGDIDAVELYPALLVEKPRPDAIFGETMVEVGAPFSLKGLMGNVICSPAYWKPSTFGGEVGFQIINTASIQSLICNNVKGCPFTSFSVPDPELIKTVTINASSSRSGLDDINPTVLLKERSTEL
Assay type: biochemical

Row | SMILES | IC50
1 | O=c1cc(-c2ccccc2)oc2cc(O)cc(O)c12 [chrysin] | 18.5 µM
2 | O=c1cc(-c2ccccc2)oc2cc(O)c(CCO)c(O)c12 [1a, 5,7-Dihydroxy-6-(2-hydroxyethyl)-2-phenyl-4H-chromen-4-one] | 9.63 µM
3 | CC(C)=CCc1c(O)cc(O)c2c(=O)cc(-c3ccccc3)oc12 [compound 8, 5,7-Dihydroxy-8-(3-methylbut-2-en-1-yl)-2-phenyl-4H-chromen-4-one] | 6.76 µM
